Here are results for 1 molecule from US20030055067A1, “Antifungal composition with enhanced bioavailability” (SCHERING CORPORATION, priority 2001, published 2003).

Data set [1] has as its system Aspergillis, Candida, Cryptococcus, Fusarium, and other opportunistic fungi. Conditions: broad range of fungi; cited from earlier work.
Data set [2] can be described thus: Lipophilicity and water solubility (background statement). It is filed as physicochemical.
Data set [3] is described as follows: Randomized, open-label, 4-way crossover, single-dose bioavailability and food effect study. It is filed as in vivo, healthy subjects. The following applies: for 0-hour plasma concentration of posaconazole: likely carry-over from previous doses. From the text:
The relative bioavailability of the posaconazole oral suspension was compared to a solid dosage form of posaconazole in healthy subjects. The first objective was to determine the relative bioavailability of posaconazole given as an oral suspension compared to an oral solid formulation when administered with a high-fat breakfast. The second objective was to determine the effect of high-fat and non-fat food relative to fasting conditions on the oral bioavailability of the compound of formula I when given as an oral suspension. Twenty healthy subjects completed this randomized, open-label, 4-way crossover, single-dose bioavailability and food effect study of posaconazole. Subjects received each of the following four treatments separated by at least a 7 day washout period: [table] Subjects were randomized to either remain fasted (Treatment A), to receive a standardized high fat breakfast (Treatment B or D) or a standardized non-fat breakfast (Treatment C). Meals were consumed in a 20-minute period prior to the morning drug administration and subjects received the appropriate treatment within 5 minute of completing the breakfast. […] The area under the plasma concentration-time curve from time zero to the final quantifiable sampling time [AUC(tf)] was calculated using the linear trapezoidal method and extrapolated to infinity (I) as follows: [formula] where C(tf) is the estimated concentration determined from linear regression at time, tf. Total body clearance was calculated by the following: CL=Dose/AUC(I) The apparent volume of distribution ([…]) was calculated from the ratio of the total body clearance to the terminal phase rate constant (K). Summary statistics were calculated for the plasma suspension formulation of the present invention compared to a prior art tablet formulation concentration-time data at each time point and the derived pharmacokinetic parameters. The original scale and log-transformed Cmax and AUC values were analyzed using an analysis of variance (ANOVA). […]

Data set [4] can be described thus: Rate of sedimentation of the oral suspension (HPLC assay after shaking and rest). Type of data set: physicochemical. Conditions: after 3 days. As for the experimental part: The rate of sedimentation of the liquid suspension of the present invention was determined as set forth below. Two bottles containing the suspension of the present invention were shaken and left to rest. The bottles were then sampled immediately (time zero), then after 5 minutes, 10 minutes, 30 minutes, 60 minutes and after 72 hours (three days) post shaking. The levels of posaconazole and of the preservative (Sodium Benzoate) in these samples were assayed by HPLC. HPLC methods of detection are well-known to one of skill in the art.

For `CC[C@@H]([C@H](C)O)n1ncn(-c2ccc(N3CCN(c4ccc(OC[C@@H]5CO[C@@](Cn6cncn6)(c6ccc(F)cc6F)C5)cc4)CC3)cc2)c1=O` [posaconazole], in data set [1], the antifungal activity result is reported as “potent”. In addition, in data set [2], the lipophilicity result is on record as “highly lipophilic” and the water solubility entry is listed as “extremely low”. In addition, the “0-hour plasma concentration of posaconazole” value in data set [3] (Subject 20, Treatment A) stood at 22.5 ng/mL. Further, the “0-hour plasma concentration of posaconazole” value in data set [3] (Subject 20, Treatment B) worked out at 8.5 ng/mL. Besides, the “mean terminal t½” value in data set [3] (independent of treatment) is “about 22 hour”. Besides, in data set [4], the sedimentation of posaconazole result is recorded as “not sedimented”.
